One data set addresses T1, THP-1 cell NLRP3 (Homo sapiens, UniProt Q96P20).
T1 construct: endogenous in cells; host or cells: THP-1 cells, PMA-differentiated, stimulated with LPS and nigericin
Put plainly: Inhibitory activity against cell NLRP3 inflammasomes in THP-1 cells (LPS + nigericin, ELISA of supernatant). The conditions noted are these: PMA-differentiated THP-1 cells, LPS 500 ng/mL 3 h, compound 1 h, nigericin 30 min; human IL-10 (so in the source) in supernatant by ELISA. The class given is cell-based. As for the experimental part: Experimental Example 1: Assay for Inhibitory Activity of Compounds Disclosed Herein Against Cell NLRP3 Inflammasomes
Test substances: The compounds of the present disclosure, prepared according to the methods described in the examples.
THP-1 is an immortalized human […] cell line.
Instrument: microplate reader (made by PE)
Assay Method: 1. THP-1 cells were cultured in 1640 complete medium (500 mL of 1640+56 mL of FBS+560 μL of 1000×P/S+2 μL of mercaptoethanol), and cells at passages 3-20 were used.
2. Culture plate coating: 100 μL of polylysine solution was added to a 96-well cell culture plate. After 30 min of incubation at 37° C., the solution was discarded, and the plate was washed with PBS twice for later use.
3. Induction of THP-1 differentiation: THP-1 cells were resuspended in an appropriate amount of complete medium containing 10 ng/mL PMA to form a cell suspension with a density of 5×10^5 cells/mL. The suspension was added to the 96-well plate at 100 μL/well, and the plate was incubated overnight in a 37° C. carbon dioxide cell incubator for 16 h.
4. Stimulation of THP-1: • a. Serum-free THP-1 culture medium containing LPS was added, with the final concentration being 500 ng/mL. The plate was incubated in a 37° C. carbon dioxide cell incubator for 3 h. • b. Mother liquors of the compounds to be tested with gradient concentrations were prepared with DMSO, added to the cells, and well mixed. Dilution was finally performed in a 1:1000 ratio. The plate was incubated in a 37° C. carbon dioxide cell incubator for 1 h. • c. Nigericin was added to each well, with the final concentration being […]. The plate was incubated in a carbon dioxide cell incubator at 37° C. for 30 min. • d. The medium in the wells was transferred to a new culture plate, and after 5 min of centrifugation at 3000 rpm, the supernatant was transferred to a new 96-well plate. • e. The content of human […] in the collected cell culture supernatant samples was determined with a commercial ELISA kit by following the instructions.
For orientation: In an ELISA, binding on a coated surface is turned into a signal by an enzyme label.

Data set [1] can be described thus: Pharmacokinetic study in mice. The format is in vivo, female C57BL/6J mice. To be noted: female, C57BL/6J, mouse, plasma; for clearance: read-out: Cl—obs iv (clearance rate) (converted); for Vd: read-out: Vss iv (distribution volume); for bioavailability: po 10 mg/kg vs iv 5 mg/kg, read-out: F% (absolute bioavailability); for Tmax: median, read-out: Tmax po (time to peak plasma concentration); for Cmax: read-out: Cmax po (peak concentration). On the procedure: The compounds were prepared into solutions using a mixed vehicle composed of 5% dimethyl sulfoxide, 20% (30% solutol), and 75% normal saline. The compound solutions were intragastrically administered to female C57BL/6J mice at a dose of 10 mg/kg, and the blood collection time points were: 15 min, 30 min, 1 h, 2 h, 4 h, 6 h, 8 h, and 24 h.
The compounds were prepared into solutions using a mixed vehicle composed of 5% dimethyl sulfoxide, 20% (30% solutol), and 75% normal saline. The compound solutions were intravenously injected into female C57BL/6J mice at a dose of 5 mg/kg, and the blood collection time points were: 5 min, 15 min, 30 min, 1 h, 2 h, 4 h, 6 h, 8 h, and 24 h.
The samples to be tested were taken out from a −80° C. freezer, naturally thawed at room temperature, and then vortexed for 5 min.
Plasma samples of 10 μL from different individuals were accurately pipetted into 1.5 mL centrifuge tubes.
900 μL of a 100 ng/mL internal standard working solution (a solution of tolbutamide in acetonitrile) was added, and the mixture was well mixed.
After 5 min of vortexing, centrifugation was performed at 12,000 rpm for 5 min.
50 μL of the supernatant was accurately pipetted into a 96-well plate to which water was added in advance at 150 μL/well.
After 5 min of vortexing, LC-MS/MS analysis was performed.
The results of the test substance concentrations were output by Analyst 1.6.3 of AB Sciex.
Parameters such as mean, standard deviation, and coefficient of variation (excluding those output directly by Analyst 1.6.3) were calculated using Microsoft Excel. PK parameters were calculated using WinNonlin Phenoix 8.2 software NCA (Tmax was a median).

The nature of data set [2]: Stability in canine liver microsomes. The class given is in vitro ADME. To be noted: dog, canine liver microsomes 0.5 mg protein/mL, 1 μM test substance, β-NADPH 1 mM, 37° C.; for half-life at 1 μM: read-out: Canine t1/2. On the procedure: (§1) Experimental Example 2: Evaluation of Stability of Compounds Disclosed Herein in Liver Microsomes
(§2) Composition of experimental incubation system:
(§3) An appropriate amount of the compound was precisely weighed out and dissolved in DMSO to prepare a 10.0 mM stock solution. The 10.0 mM stock solution was diluted with DMSO to 1.0 mM, and then diluted with phosphate buffer (containing 3 mM MgCl2) to prepare a 10 μM test substance working solution for later use (DMSO content in the reaction system: 0.1%).
(§4) An appropriate amount of β-NADPH was precisely weighed out and then prepared into a 5 mM β-NADPH working solution using phosphate buffer (containing 3 mM MgCl2) for later use.
(§5) (1) The liver microsomes (20 mg protein/mL) were taken out from a −80° C. freezer and pre-incubated on a 37° C. water bath thermostatic oscillator for 3 min to thaw for later use.
(§6) (2) A mixed solution of the incubation system (without β-NADPH) was prepared according to “composition of experimental incubation system” described above, and pre-incubated on a 37° C. water bath thermostatic oscillator for 2 min.
(§7) (3) Control group (without β-NADPH): 10 μL of phosphate buffer (containing 3 mM MgCl2) and 40 μL of the mixed solution of the incubation system in step (2) were taken and mixed, and the mixture was vortexed for 30 s and mixed well, resulting in a total reaction volume of 50 μL; the sample was duplicated. The mixture was placed on a 37° C. water bath thermostatic oscillator for incubation, and timing was started, with termination time points set at 0 min and 60 min.
(§8) (4) Sample group: 10 μL of the β-NADPH solution (5 mM) and 40 μL of the mixed solution in step (2) were taken and mixed, resulting in a total reaction volume of 50 μL; the mixture was vortexed for 30 s and mixed well; the sample was duplicated. The mixture was placed on a 37° C. water bath thermostatic oscillator for incubation, and timing was started, with termination time points set at 0 min, 5 min, 10 min, 20 min, 30 min, and 60 min.
(§9) (5) The mixture was vortexed for 5 min and then centrifuged at 4000 rpm for 10 min.
(§10) (6) 50 μL of the supernatant was taken and added to 150 μL of water, and the resulting mixture was vortexed and mixed well before LC/MS/MS analysis.
(§11) The half-life (t1/2) and clearance rate (CL) were calculated using the following first-order kinetic formula
(§12) Notes: k denotes the slope of the logarithm of the remaining amount of a compound vs. time, and Vd denotes apparent volume of distribution.

Data set [3] can be described thus: Stability in rat liver microsomes. The class given is in vitro ADME. The conditions noted are these: rat liver microsomes 0.5 mg protein/mL, 1 μM test substance, β-NADPH 1 mM, 37° C.; for half-life at 1 μM: read-out: Rat t1/2. On the procedure: as §1, §2, §3, §4, §5, §6, §7, §8, §9, §10, §11, §12
Background: Liver microsomes are vesicles of endoplasmic reticulum, rich in cytochrome P450 enzymes.

Where [4] appears, read: iv 5 mg/kg, read-out: AUClast iv (0-24 h).
The mark [5] stands for this setting: iv 5 mg/kg, read-out: tz1/2 iv (terminal half-life) (converted).
Setting [6] is: po 10 mg/kg, read-out: AUClast po (0-24 h).
Setting [7] is: po 10 mg/kg, read-out: tz1/2 po (terminal half-life) (converted).

Where two headings read alike, the source gives them in different places.

T1 sequence (Q96P20 whole entry): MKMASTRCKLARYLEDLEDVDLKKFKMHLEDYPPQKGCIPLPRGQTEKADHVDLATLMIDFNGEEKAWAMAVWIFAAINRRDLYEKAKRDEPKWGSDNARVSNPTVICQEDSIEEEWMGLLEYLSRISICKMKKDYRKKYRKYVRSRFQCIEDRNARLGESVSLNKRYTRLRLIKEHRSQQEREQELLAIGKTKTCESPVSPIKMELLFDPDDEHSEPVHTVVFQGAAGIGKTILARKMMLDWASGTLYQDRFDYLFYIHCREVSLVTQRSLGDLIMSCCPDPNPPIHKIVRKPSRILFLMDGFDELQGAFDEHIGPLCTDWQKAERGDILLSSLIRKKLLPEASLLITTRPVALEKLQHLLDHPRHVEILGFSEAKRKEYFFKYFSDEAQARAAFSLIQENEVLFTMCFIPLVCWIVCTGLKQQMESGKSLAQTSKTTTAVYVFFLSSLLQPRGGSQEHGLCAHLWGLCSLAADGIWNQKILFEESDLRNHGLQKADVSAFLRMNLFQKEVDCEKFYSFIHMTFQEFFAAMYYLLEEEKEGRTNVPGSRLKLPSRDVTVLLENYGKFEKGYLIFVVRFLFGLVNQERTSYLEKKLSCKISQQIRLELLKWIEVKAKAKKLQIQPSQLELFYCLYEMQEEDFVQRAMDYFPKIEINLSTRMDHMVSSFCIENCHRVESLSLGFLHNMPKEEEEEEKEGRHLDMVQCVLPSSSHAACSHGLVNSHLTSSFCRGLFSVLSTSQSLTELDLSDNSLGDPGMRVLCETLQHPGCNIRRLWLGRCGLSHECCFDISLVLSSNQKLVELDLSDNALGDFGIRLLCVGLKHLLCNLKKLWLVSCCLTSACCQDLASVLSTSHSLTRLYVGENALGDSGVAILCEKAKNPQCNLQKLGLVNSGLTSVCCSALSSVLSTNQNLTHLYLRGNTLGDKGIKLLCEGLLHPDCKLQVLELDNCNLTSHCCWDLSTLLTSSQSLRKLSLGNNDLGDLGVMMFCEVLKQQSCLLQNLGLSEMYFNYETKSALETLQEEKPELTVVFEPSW

As a reminder, the IC50 is the concentration at which inhibition is half-maximal. As usually defined, the clearance is the rate of elimination divided by the concentration. As a reminder, the bioavailability is dose-corrected exposure relative to a reference, in per cent. `CC#Cc1ccc(-c2nnc(N[C@@H]3CCCN(CCO)C3)cc2C2CC2)c(O)c1` [Compound 44, (R)-2-(4-cyclopropyl-6-((1-(2-hydroxyethyl)piperidin-3-yl)amino)pyridazin-3-yl)-5-(prop-1-yn-1-yl)phenol]: the IC50 on THP-1 cell NLRP3 worked out at 3.6 nM. Moreover, the AUC(0-t) is 8960 ng·h/mL in data set [1] (setting [4]) and 12400 ng·h/mL in data set [1] (setting [6]). In addition, in data set [1] (iv 5 mg/kg), the clearance was 9.18 mL/min/kg. For the same molecule, in data set [1] (iv 5 mg/kg), the Vd stood at 2.76 L/kg. Further, the half-life in data set [1] (setting [5]) was 3.95 h; in data set [1] (setting [7]) it was 4.05 h. In addition, the bioavailability in data set [1] is 69.1%. The Tmax in data set [1] (po 10 mg/kg) came out at 0.5 h. In data set [1] (po 10 mg/kg), the Cmax turned out to be 1710 ng/mL.
What is called microsomal CLint is a measure of how fast metabolising enzymes remove a compound, apart from limits set by blood flow. Read a low microsomal CLint as greater metabolic stability. As to `C#Cc1ccc(-c2nnc(N[C@@H]3CCCN(C)C3)cc2C2CCC2)c(O)c1` [Compound 82, (R)-5-ethynyl-2-(4-cyclobutyl-6-((1-methylpiperidin-3-yl)amino)pyridazin-3-yl)phenol], the microsomal CLint at 1 μM in data set [2] was determined as 8 µL/min/mg; in data set [3] it was 10.4 µL/min/mg. In addition, the results for the half-life at 1 μM in data set [2] and in data set [3] were 2.88 h and 2.22 h, respectively. Further, the IC50 at THP-1 cell NLRP3 was 1.1 nM.
Regarding `C#Cc1ccc(-c2nnc(N[C@@H]3CCCC[C@H]3O)cc2C)c(O)c1` [Compound 83, 5-ethynyl-2-(6-(((1R,2R)-2-hydroxycyclohexyl)amino)-4-methylpyridazin-3-yl)phenol], the figures for the intrinsic clearance (microsomal CLint) at 1 μM in data set [2] and in data set [3] were 3.8 µL/min/mg and 10 µL/min/mg, respectively. For the same molecule, the half-life at 1 μM in data set [2] turned out to be 6.08 h; in data set [3] it was 2.32 h. For the same molecule, the IC50 on THP-1 cell NLRP3 stood at 6.1 nM.
Turning to `[2H]C([2H])([2H])N1CCC[C@@H](Nc2nnc(-c3ccc(C#C)cc3O)c(C)n2)C1` [Compound 86, (R)-5-ethynyl-2-(5-methyl-3-((1-(methyl-d3)piperidin-3-yl)amino)-1,2,4-triazin-6-yl)phenol], in data set [2], the microsomal CLint at 1 μM amounted to 6.6 µL/min/mg and the half-life at 1 μM is 3.5 h. Also, in data set [3], the microsomal CLint at 1 μM came to 7.8 µL/min/mg and the half-life at 1 μM was found to be 2.97 h. Besides, on THP-1 cell NLRP3, the half-inhibitory concentration (IC50) amounted to 0.3 nM.
With `[2H]C([2H])([2H])N1CCC[C@@H](Nc2nnc(-c3ccc(C#C)cc3O)n(C)c2=O)C1` [Compound 88, (R)-3-(4-ethynyl-2-hydroxyphenyl)-4-methyl-6-((1-(methyl-d3)piperidin-3-yl)amino)-1,2,4-triazin-5(4H)-one], in data set [2], the microsomal CLint at 1 μM turned out to be 1.6 µL/min/mg and the half-life at 1 μM was found to be 14.4 h. In data set [3], the microsomal CLint at 1 μM worked out at 2 µL/min/mg and the half-life at 1 μM came to 11.6 h. Besides, the IC50 on THP-1 cell NLRP3 came to 1.2 nM.
On the same counts, the results for `C#Cc1ccc(-c2nnc(N[C@@H]3CCCN(CC)C3)cc2C)c(O)c1` [Compound 89, (R)-2-(6-((1-ethylpiperidin-3-yl)amino)-4-methylpyridazin-3-yl)-5-ethynylphenol] are 6.2 µL/min/mg, 3.73 h, 8 µL/min/mg, 2.88 h and 0.2 nM.
For `C#Cc1ccc(-c2nnc(N[C@@H]3CCCN(CC)C3)cc2C2CC2)c(O)c1` [Compound 90, (R)-2-(4-cyclopropyl-6-((1-ethylpiperidin-3-yl)amino)pyridazin-3-yl)-5-ethynylphenol], the IC50 on THP-1 cell NLRP3 is 0.4 nM. Further, the AUC(0-t) in data set [1] (setting [4]) was determined as 4020 ng·h/mL. For the same molecule, in data set [1] (iv 5 mg/kg), the clearance was 20.7 mL/min/kg and the Vd stood at 6.23 L/kg. Moreover, the half-life in data set [1] (setting [5]) was 3.23 h. Further, the bioavailability in data set [1] is 94.5%. Also, in data set [1] (po 10 mg/kg), the Tmax stood at 2 h and the Cmax was determined as 900 ng/mL. In addition, in data set [1] (setting [6]), the AUC(0-t) is 7580 ng·h/mL. Besides, the half-life in data set [1] (setting [7]) was 3.33 h.
For the molecule `C#Cc1ccc(-c2nnc(N[C@@H]3CCCN(CC)C3)c(=O)n2C)c(O)c1` [Compound 93, (R)-6-((1-ethylpiperidin-3-yl)amino)-3-(4-ethynyl-2-hydroxyphenyl)-4-methyl-1,2,4-triazin-5(4H)-one], in data set [2], the microsomal CLint at 1 μM is 5 µL/min/mg and the half-life at 1 μM came to 4.62 h. Moreover, in data set [3], the intrinsic clearance (microsomal CLint) at 1 μM was 5.6 µL/min/mg and the half-life at 1 μM worked out at 4.13 h. For the same molecule, on THP-1 cell NLRP3, the IC50 was found to be 1.4 nM.

(Values after patent US20260167637A1, “NLRP3 INFLAMMASOME INHIBITOR AND USE THEREOF” (TransThera Sciences (Nanjing), Inc., priority 2022, published 2026).)
